Measured values taken from patent US20230293519A1, “INTEGRIN INHIBITORS AND USES THEREOF IN COMBINATION WITH OTHER AGENTS” (Pliant Therapeutics, Inc., priority 2021, published 2023).
Entries after “also recorded” stand apart in the source; their conditions may differ.

Key:
[1] = system: normal human bronchial epithelial cells; test: LAP adhesion assay (xCELLigence cell index), bronchial epithelial cells; assay type: cell-based; settings: normal bronchial epithelial cells (express αvβ6)
Description: Two latency associated peptide (LAP) adhesion binding assays were devised using primary human lung cells, including normal (healthy) human bronchial epithelial cells and human lung fibroblasts (healthy and IPF).
Human bronchial epithelial cells are known to express αvβ6 integrin in culture.

[2] = Unbound plasma concentration in the PET/CT study; assay type: in vivo; settings: human
Experimental: This Example was conducted as an open-label, single-dose (60 mg, 120 mg, 240 mg or 320 mg) clinical trial evaluating αvβ6 receptor occupancy in the lungs, safety, and pharmacokinetics of Compound #5 in subjects with IPF. To date, 4 participants have completed the study. Each of these 4 participants was undergoing a pre-existing course of therapy using one of the SoC (Standard of Care) compounds, nintedanib. These participants continued their pre-existing nintedanib therapy throughout this study. Knottin tracer uptake kinetics were compared pre- and post-dose of the disclosed compound, as measured by standardized uptake values (SUVs) and parameters estimated from kinetic modeling in regions-of-interest on dynamic [^18F]FP-R01-MG-F2 PET/CT scans. […] Receptor occupancy was estimated from the output of the two-compartment model (VT, the […]) using standard equations and fitting algorithms, and corrections for VND (non-displaceable tracer binding). For example, in FIG. 10, the data points, shown as circles, are modeled by the following formula: […]
FIG. 9 is a graph of unbound plasma concentration (X-axis) vs Vt (Y-axis) for the baseline Vt at each dose, the measured Vt after each dose, and a fit line. FIG. 10 is a graph of unbound plasma concentration (X-axis) vs % receptor occupancy (Y-axis). FIG. 11 is a bar chart showing % target engagement for each subject and dose.

[3] = system: bleomycin-treated mice (C57BL/6); test: Murine bleomycin model: collagen deposition; assay type: in vivo, mouse
Experimental: Mice (C57BL/6) were divided into healthy (n=15), vehicle-treated (n=15), and test article-treated (n=15 per dose) groups. Mice in the vehicle and test article-treated groups were administered 3 U/kg of bleomycin (Teva Pharmaceuticals; North Wales, PA) via oropharyngeal aspiration while under anesthesia on day 0. Healthy animals were administered water in a similar fashion. Starting on day 7, mice in the control group were administered PBS vehicle, 130 uL, by oral gavage, BID for 14 days. Also starting on day 7, mice in the test group were administered compound 5 in PBS by oral gavage, BID for 14 days, at relative dosages of 1x, 2.5x and 5x. […] From day 14 through day 21, 9 of the 15 mice were administered ^2H2O for labeling. All mice were sacrificed on day 21 and tissues were collected. Samples were prepared for analysis either directly from lung tissue, or by bronchoalveolar lavage, which washes out the bronchiolar and alveolar space with saline to produce a bronchoalveolar lavage fluid (BALF) in which 80-90% of cells are alveolar macrophages.
FIG. 4C is a graph showing that compared to the healthy mice, lung tissue in the vehicle-treated mice experienced a substantial increase in SMAD3 phosphorylation, which is a measure of TGF-β signaling-related kinase activity. […] FIG. 4D is a graph showing that compared to the healthy mice, lung tissue in the vehicle-treated mice experienced a substantial accumulation of new collagen as evidenced by the percentage of lung collagen containing ^2H-labeled hydroxyproline.
FIGS. 4F, 4G, and 4H show high resolution second harmonic generation images of fibrillar collagen (collagen type I and III) taken from formalin-fixed paraffin embedded lung tissue sections from a healthy mouse lung (4F), a vehicle-treated mouse lung (4G) and a test-article treated mouse lung (4H; 500 mg/kg BID). Color scale is indicative of collagen fiber density (red = most dense; blue = least dense).
FIG. 4I is a graph showing the percent total collagen area in the second harmonic generation mouse lung images. […]

SMAD3 phosphorylation = test: pSMAD3/SMAD3 in lung tissue and BALF of healthy mice; assay type: in vivo, mouse; settings: 4 days of treatment, dose dependent
[4] = system: patients with idiopathic pulmonary fibrosis (IPF); test: Phase 2a trial in IPF: safety and tolerability
Description: Approximately 80% of the enrolled patients were on standard of care and were equally distributed between nintedanib and pirfenidone.

COL1A1 expression = test: PCLS from human IPF lung tissue, 7 days: COL1A1 expression; assay type: cell-based
Experimental: PCLS from 5-7 idopathic pulmonary fibrosis (IPF) lung tissue samples were cultured for seven days with one of: DMSO; Compound 5 at 200 nM; nintedanib at 75 nM; pirfenidone at 50 µm; a combination of Compound 5 at 200 nM and nintedanib at 75 nM; a combination of Compound 5 at 200 nM and pirfenidone at 50 µm; or an Alk5 inhibitor at 1 µm. […] FIG. 6D is a bar graph showing relative expression of COL1A1 in precision cut lung slices (PCLS) from idopathic pulmonary fibrosis (IPF) lung tissue upon exposure to Comopund 5, clinical standard of care compounds nintedanib (Nin) and pirfenidone (Pirf), and an ALK5 inhibitor, all versus DMSO control.
PCLS from a single IPF lung tissue sample were cultured for seven days with Compound 5 at concentrations of 200 pM, 2 nM, 60 nM, 200 nM, and 1 µM, along with 0.1% DMSO control and an Alk5 inhibitor at 1 µM. […] COL1A1 expression is also graphed for the PCLS in the presence of 0.1% DMSO control, and an Alk5 inhibitor at 1 µM.

SMILES: COCCN(CCCCc1ccc2c(n1)NCCC2)CC[C@H](Nc1ncnc2ccccc12)C(=O)O [Compound 5, (S)-4-((2-methoxyethyl)(4-(5,6,7,8-tetrahydro-1,8-naphthyridin-2-yl)butyl)amino)-2-(quinazolin-4-ylamino)butanoic acid]
- inhibition of cell adhesion to LAP [1]: substantially inhibited
- concentration at 4 h ([2]; 60 mg, Subject A00, 60 mg single dose): 3.66 nM
- concentration at 4 h ([2]; 120 mg, Subject B120, 120 mg): 10 nM
- concentration at 4 h ([2]; 240 mg, Subject B240, 240 mg): 58.3 nM
- concentration at 4 h ([2]; 240 mg, Subject C240, 240 mg): 103 nM
- concentration at 4 h ([2]; 320 mg, Subject D320, 320 mg): 33.6 nM
- concentration at 4 h ([2]; Subject C320, 320 mg): 96.5 nM
- accumulated new collagen (% of lung collagen containing 2H-labeled hydroxyproline) ([3]; 1x and 5x dose PO BID 14 days): dose-dependent reduction
- percent total collagen area in second harmonic generation lung images ([3]; 1x, 2.5x, 5x dose): substantial, statistically significant dose-dependent reduction
- total pulmonary collagen (µg of hydroxyproline) ([3]; 1x, 2.5x, 5x dose PO BID 14 days): reduction in total pulmonary collagen
- SMAD3 phosphorylation (pSMAD3/SMAD3) in cells isolated from BALF, % of the untreated levels (SMAD3 phosphorylation): approximately 50%
- SMAD3 phosphorylation (pSMAD3/SMAD3) in lung tissue, % of the untreated levels (SMAD3 phosphorylation): approximately 50%
- discontinuations due to adverse events ([4]; 12 weeks): no discontinuations due to adverse events
- severity of most treatment emergent adverse events (TEAE) ([4]; 12 weeks): mild or moderate
- treatment related deaths or drug related serious adverse events (SAE) ([4]; 12 weeks): No treatment related deaths or drug related serious adverse events; also recorded: No treatment related SAEs or deaths
- patients completing 12 weeks of treatment (65 of 67) ([4]; 40, 80, 160 mg once daily): 97%
- tolerability ([4]; 40, 80, 160 mg once daily, 12 weeks): safe and well tolerated
- serious adverse events ([4]; Compound 5 alone): did not result in serious adverse events
- reduction of COL1A1 expression (COL1A1 expression; Compound 5 200 nM, nintedanib 75 nM, pirfenidone 50 µM, 5-7 IPF lungs): 43%
- concentration with significant reduction of COL1A1 expression (COL1A1 expression; single IPF lung, 200 pM to 1 µM tested): ≥ 2 nM
- reduction in COL1A1 expression at concentrations with significant effect (COL1A1 expression; single IPF lung, Compound 5 ≥ 2 nM): ≥ 47%
